The target of one assay is T1, CoREST1^NT2-HDAC2 (Homo sapiens, UniProt Q92769).
T1 construct: untagged full-length HDAC2 1-488 co-expressed with CoREST1 ELM2-SANT1 71-259 (C-terminal FLAG/10xHis) in Expi293F, purified; with REST corepressor 1
In words: microscale thermophoresis, competition with labelled KBTBD4 R313PRR. The note with it: blocks KBTBD4 R313PRR binding to HDAC2; HDAC2 catalytic site; pH 7.5, 25 °C. For orientation: Microscale thermophoresis detects binding through changes in fluorescence in a small temperature gradient.

For assay [1], the target named is T2, KBTBD4^WT with CoREST1^NT2-HDAC2 (ternary complex) (Homo sapiens, UniProt Q92769+Q9NVX7).
T2 construct: FLAG-KBTBD4 17-534 (near full length, dimer, N-terminal 3xFLAG); untagged full-length HDAC2 1-488 co-expressed with CoREST1 ELM2-SANT1 71-259 carrying C-terminal FLAG/10xHis; Expi293F; purified; complexes 2:1:1, also 2:1 and 2:2 KBTBD4:HDAC2 by cryo-EM; with REST corepressor 1
In words: microscale thermophoresis, labelled KBTBD4 WT. Type of assay: binding.

Assay [2] deals with FLAG-KBTBD4^R313PRR (17-536 a.a.), full-length dimer (human (from the printed UniProt entry)) (UniProt Q9NVX7). The experiment in a line: MST; unlabelled partner titrated into 40 nM RED-NHS-labelled KBTBD4 variant, no compound; 50 mM HEPES pH 7.5, 150 mM NaCl, 10% glycerol, 5 mM MgCl2, 0.05% Tween-20, 0.1 mM TCEP; 25 °C; apparent KD; triplicates.
Assay [3] concerns the target FLAG-KBTBD4^R313PRR (17-536 a.a.), full-length dimer (human (from the printed UniProt entry)), Q9NVX7. In words: cryo-EM structure; 4 µM KBTBD4^R313PRR mixed with 4 µM CoREST1^NT2-HDAC2, 50 mM HEPES pH 7.5, 150 mM NaCl, 10% glycerol, 5 mM MgCl2, 0.5 mM TCEP, 15 min on ice, not crosslinked. The note with it: remark: other sources report otherwise.
Assay [4] has as its target FLAG-KBTBD4^WT (17-534 a.a.) (human (from the printed UniProt entry)), Q9NVX7. The experiment in a line: cryo-EM structure; 4 µM KBTBD4^WT, 4 µM CoREST1^NT2-HDAC2 and 40 µM UM171, 50 mM HEPES pH 7.5, 150 mM NaCl, 5% glycerol, 5 mM MgCl2, 0.5 mM TCEP, crosslinked with BS3. The note with it: remark: other sources report otherwise.

For `CC(=O)Nc1ccc(C(=O)Nc2cc(-c3cccs3)ccc2N)cc1` [BRD6929], the “microscale thermophoresis, competition with labelled KBTBD4 R313PRR” value at CoREST1^NT2-HDAC2 is “the addition of BRD6929 abrograted all KBTBD4^R313PRR-HDAC2 binding in the MST assay”.

On to `Cn1cc(-c2ccc3c(c2)[nH]c2nc(Cc4ccccc4)nc(NC4CCC(N)CC4)c23)cn1` (stereo not drawn) [compound 2, compound (2)], for which the Kd in assay [1] was found to be 26 µM. Regarding `COC(=O)c1ccc2c(c1)[nH]c1nc(Cc3ccccc3)nc(NCCCN3CCCC3)c12` [compound 13, S234984], in assay [1], the Kd is 2.3 µM.

Regarding “CoREST1^NT2-HDAC2 complex (recombinant, co-expressed) (from UniProt Q92769-1 1-488)”, the Kd in assay [2] came out at 750 nM.

B1: FLAG-KBTBD4^R313PRR (17-536 a.a.), full-length dimer, Q9NVX7-2 17-534 (natural protein)
chain: MESPEEPGASMDENYFVNYTFKDRSHSGRVAQGIMKLCLEEELFADVTISVEGREFQLHRLVLSAQSCFFRSMFTSNLKEAHNRVIVLQDVSESVFQLLVDYIYHGTVKLRAEELQEIYEVSDMYQLTSLFEECSRFLARTVQVGNCLQVMWLADRHSDPELYTAAKHCAKTHLAQLQNTEEFLHLPHRLLTDIISDGVPCSQNPTEAIEAWINFNKEEREAFAESLRTSLKEIGENVHIYLIGKESSRTHSLAVSLHCAEDDSISVSGQNSLCHQITAACKHGGDLYVVGGSIPRPRRMWKCNNATVDWEWCAPLPRDRLQHTLVSVPGKDAIYSLGGKTLQDTLSNAVIYYRVGDNVWTETTQLEVAVSGAAGANLNGIIYLLGGEENDLDFFTKPSRLIQCFDTETDKCHVKPYVLPFAGRMHAAVHKDLVFIVAEGDSLVCYNPLLDSFTRLCLPEAWSSAPSLWKIASCNGSIYVFRDRYKKGDANTYKLDPATSAVTVTRGIKVLLTNLQFVLA
modifications: here or on the partner: RED-NHS 2nd generation fluorescent label, in the MST experiments only; RED-NHS 2nd generation fluorescent label, in the MST experiments only
The term stoichiometry N denotes the number of molecules, sites or subunits per partner or assembly. Molecule B1 displayed a stoichiometry N in assay [3] of 2.

B2: FLAG-KBTBD4^WT (17-534 a.a.), Q9NVX7-2 17-534 (natural protein)
chain: MESPEEPGASMDENYFVNYTFKDRSHSGRVAQGIMKLCLEEELFADVTISVEGREFQLHRLVLSAQSCFFRSMFTSNLKEAHNRVIVLQDVSESVFQLLVDYIYHGTVKLRAEELQEIYEVSDMYQLTSLFEECSRFLARTVQVGNCLQVMWLADRHSDPELYTAAKHCAKTHLAQLQNTEEFLHLPHRLLTDIISDGVPCSQNPTEAIEAWINFNKEEREAFAESLRTSLKEIGENVHIYLIGKESSRTHSLAVSLHCAEDDSISVSGQNSLCHQITAACKHGGDLYVVGGSIPRRMWKCNNATVDWEWCAPLPRDRLQHTLVSVPGKDAIYSLGGKTLQDTLSNAVIYYRVGDNVWTETTQLEVAVSGAAGANLNGIIYLLGGEENDLDFFTKPSRLIQCFDTETDKCHVKPYVLPFAGRMHAAVHKDLVFIVAEGDSLVCYNPLLDSFTRLCLPEAWSSAPSLWKIASCNGSIYVFRDRYKKGDANTYKLDPATSAVTVTRGIKVLLTNLQFVLA
modifications: here or on the partner: RED-NHS 2nd generation fluorescent label, in the MST experiments only; RED-NHS 2nd generation fluorescent label, in the MST experiments only
Take B2: the stoichiometry N in assay [4] worked out at 2.

These data come from PMC11965401 (Nature Communications, 2025).
